The values that follow come from ChEMBL document CHEMBL3046909, “C(18) acetylenic fatty acids of Ximenia americana with potential pesticidal activity” (J Agric Food Chem, 2000).

Data set [1] concerns Clavigralla tomentosicollis. The data set is described as follows: Inhibition of hatching of Clavigralla tomentosicollis eggs in pods of cowpea at 4x10'4 ug/mL spray measured after 6 days. Format: functional.
Data set [2] in a line: (§1) Toxicity in Artemia (brine shrimps) larvae. Format: organism-based. As to conditions: in vivo.
Another data set relates to Artemia. Described as §1. Type of data set: organism-based. As to conditions: in vivo.

Converted amounts (≈) assume the structure as drawn.

As to `C/C=C/C=C/C#C/C=C\CCCCCCCCC(=O)O`, the “inhibition (INH)” value in data set [1] turned out to be 92%. Further, the LC50 in data set [2] was determined as 20 µg/mL (≈ 72.9 µM).
For `CC[C@H](CC[C@@H](C)[C@H]1CC[C@H]2[C@@H]3CC=C4C[C@@H](O)CC[C@]4(C)[C@H]3CC[C@]12C)C(C)C` [BETA-SITOSTEROL], the Activity result with Artemia is given as “Non-toxic”.

Usually LC50 stands for the concentration that kills 50% of the test population.
